# Assay results from US8299077B2 (Roche Palo Alto LLC, priority 2009, dated 2012).
# System: B cell receptor-mediated activation of B cells in human blood (CD69 expression)
# Assay: Inhibition of B cell activation in whole blood measured by CD69 expression
# Assay type: cell-based
# Conditions: anti-IgM stimulation, 20 h, 50% decrease of CD69-positive cells that are also CD20-positive
# Protocol: Inhibition of B Cell Activation in Whole Blood Measured by CD69 Expression
# A procedure to test the ability of Btk inhibitors to suppress B cell receptor-mediated activation of B cells in human blood is as follows:
# Human whole blood (HWB) is obtained from healthy volunteers, with the following restrictions: 24 hr drug-free, non-smokers. Blood is collected by venipuncture into Vacutainer tubes anticoagulated with sodium heparin. Test compounds are diluted to ten times the desired starting drug concentration in PBS (20×), followed by three-fold serial dilutions in 10% DMSO in PBS to produce a nine point dose-response curve. 5.5 μl of each compound dilution is added in duplicate to a 2 ml 96-well V bottom plate (Analytical Sales and Services, #59623-23); 5.5 μl of 10% DMSO in PBS is added to control and no-stimulus wells. HWB (100 μl) is added to each well, and after mixing the plates are incubated at 37 C, 5% CO2, 100% humidity for 30 minutes. Goat F(ab′)2 anti-human IgM (Southern Biotech, #2022-14) (10 μl of a 500 μg/ml solution, 50 μg/ml final concentration) is added to each well (except the no-stimulus wells) with mixing and the plates are incubated for an additional 20 hours.
# At the end of the 20 hour incubation, samples are incubated with florescent-probe-labeled anti-bodies (15 μl PE Mouse anti-Human CD20, BD Pharmingen, #555623, and/or 20 ul APC Mouse anti-Human CD69, BD Pharmingen #555533) for 30 minutes, at 37 C, 5% CO2, 100% humidity. Included are induced control, unstained and single stains for compensation adjustments and initial voltage settings. Samples are then lysed with 1 ml of 1× Pharmingen Lyse Buffer (BD Pharmingen #555899), and plates are centrifuged at 1800 rpm for 5 minutes. Supernatants are removed via suction and the remaining pellets are lysed again with another 1 ml of 1× Pharmingen Lyse Buffer, and plates are spun down as before. Supernatants are aspirated and remaining pellets are washed in FACs buffer (PBS+1% FBS). After a final spin, the supernantants are removed and pellets are resuspended in 180 μl of FACs buffer. Samples are transferred to a 96 well plate suitable to be run on the HTS 96 well system on the BD LSR II flow cytometer.
# Using appropriate excitation and emission wavelengths for the fluorophores used, data are acquired and percent positive cell values are obtained using Cell Quest Software. Results are initially analyzed by FACS analysis software (Flow Jo). […] The IC50 values are calculated using XLfit software version 3, equation 201.
row,Compound,IC50
1,"Cn1cc(-c2cccc(-n3ncc4cc(C(C)(C)C)cc(F)c4c3=O)c2CO)cc(Nc2ccc(C(=O)O)cn2)c1=O [Example I-34, 6-{5-[3-(6-tert-Butyl-8-fluoro-1-oxo-1H-phthalazin-2-yl)-2-hydroxymethyl-phenyl]-1-methyl-2-oxo-1,2-dihydro-pyridin-3-ylamino}-nicotinic acid]",258 nM
2,"Cn1cc(-c2cccc(-n3ncc4cc(C(C)(C)C)cc(F)c4c3=O)c2CO)cc(Nc2ccc(C(C)(C)N)cn2)c1=O [Example I-35, 2-(3-{5-[5-(1-Amino-1-methyl-ethyl)-pyridin-2-ylamino]-1-methyl-6-oxo-1,6-dihydro-pyridin-3-yl}-2-hydroxymethyl-phenyl)-6-tert-butyl-8-fluoro-2H-phthalazin-1-one]",28 nM
3,"CC(O)c1ccc(Nc2cc(-c3cccc(-n4ncc5cc(C(C)(C)C)cc(F)c5c4=O)c3CO)cn(C)c2=O)nc1 (stereo not drawn) [Example I-36, 6-tert-Butyl-8-fluoro-2-(3-{5-[5-(1-hydroxy-ethyl)-pyridin-2-ylamino]-1-methyl-6-oxo-1,6-dihydro-pyridin-3-yl}-2-hydroxymethyl-phenyl)-2H-phthalazin-1-one]",59 nM
4,"CCn1ccc(Nc2cc(-c3cccc(-n4ncc5cc(C(C)(C)C)cc(F)c5c4=O)c3CO)cn(C)c2=O)nc1=O [Example I-37, 6-tert-Butyl-2-{3-[5-(1-ethyl-2-oxo-1,2-dihydro-pyrimidin-4-ylamino)-1-methyl-6-oxo-1,6-dihydro-pyridin-3-yl]-2-hydroxymethyl-phenyl}-8-fluoro-2H-phthalazin-1-one]",219 nM
5,"CC(C)n1ccc(Nc2cc(-c3cccc(-n4ncc5cc(C(C)(C)C)cc(F)c5c4=O)c3CO)cn(C)c2=O)nc1=O [Example I-38, 6-tert-Butyl-8-fluoro-2-{2-hydroxymethyl-3-[5-(1-isopropyl-2-oxo-1,2-dihydro-pyrimidin-4-ylamino)-1-methyl-6-oxo-1,6-dihydro-pyridin-3-yl]-phenyl}-2H-phthalazin-1-one]",67 nM
6,"COCCNCc1ccc(Nc2cc(-c3cccc(-n4ncc5cc(C(C)(C)C)cc(F)c5c4=O)c3CO)cn(C)c2=O)nc1 [Example I-39, 6-tert-Butyl-8-fluoro-2-[2-hydroxymethyl-3-(5-{5-[(2-methoxy-ethylamino)-methyl]-pyridin-2-ylamino}-1-methyl-6-oxo-1,6-dihydro-pyridin-3-yl)-phenyl]-2H-phthalazin-1-one]",8 nM
7,"Cn1cc(-c2cccc(-n3ncc4cc(C(C)(C)C)cc(F)c4c3=O)c2CO)cc(NC2=NCCO2)c1=O [Example I-40, 6-tert-Butyl-2-{3-[5-(4,5-dihydro-oxazol-2-ylamino)-1-methyl-6-oxo-1,6-dihydro-pyridin-3-yl]-2-hydroxymethyl-phenyl}-8-fluoro-2H-phthalazin-1-one]",824 nM
8,"Cn1cc(-c2cccc(-n3ncc4cc(C(C)(C)C)cc(F)c4c3=O)c2CO)cc(Nc2ccc3c(n2)CCNC3)c1=O [Example I-41, 6-tert-Butyl-8-fluoro-2-{2-hydroxymethyl-3-[1-methyl-6-oxo-5-(5,6,7,8-tetrahydro-[1,6]naphthyridin-2-ylamino)-1,6-dihydro-pyridin-3-yl]-phenyl}-2H-phthalazin-1-one]",33 nM
9,"CCNCc1ccc(Nc2cc(-c3cccc(-n4ncc5cc(C(C)(C)C)cc(F)c5c4=O)c3CO)cn(C)c2=O)nc1 [Example I-42, 6-tert-Butyl-2-{3-[5-(5-ethylaminomethyl-pyridin-2-ylamino)-1-methyl-6-oxo-1,6-dihydro-pyridin-3-yl]-2-hydroxymethyl-phenyl}-8-fluoro-2H-phthalazin-1-one]",6 nM
10,"CC(C)NCc1ccc(Nc2cc(-c3cccc(-n4ncc5cc(C(C)(C)C)cc(F)c5c4=O)c3CO)cn(C)c2=O)nc1 [Example I-43, 6-tert-Butyl-8-fluoro-2-(2-hydroxymethyl-3-{5-[5-(isopropylamino-methyl)-pyridin-2-ylamino]-1-methyl-6-oxo-1,6-dihydro-pyridin-3-yl}-phenyl)-2H-phthalazin-1-one]",15 nM
11,"Cn1cc(-c2cccc(-n3ncc4cc(C(C)(C)C)cc(F)c4c3=O)c2CO)cc(NC2=NCCCO2)c1=O [Example I-44, 6-tert-Butyl-2-{3-[5-(5,6-dihydro-4H-[1,3]oxazin-2-ylamino)-1-methyl-6-oxo-1,6-dihydro-pyridin-3-yl]-2-hydroxymethyl-phenyl}-8-fluoro-2H-phthalazin-1-one]",1730 nM
12,"Cn1cc(-c2cccc(-n3ncc4cc(C(C)(C)C)cc(F)c4c3=O)c2CO)cc(Nc2ccc(N3CC[N+](C)([O-])CC3)cn2)c1=O [Example I-45, 6-tert-Butyl-8-fluoro-2-(2-hydroxymethyl-3-{1-methyl-5-[5-(4-methyl-4-oxy-piperazin-1-yl)-pyridin-2-ylamino]-6-oxo-1,6-dihydro-pyridin-3-yl}-phenyl)-2H-phthalazin-1-one]",2260 nM
13,"CC1CCOC(Nc2cc(-c3cccc(-n4ncc5cc(C(C)(C)C)cc(F)c5c4=O)c3CO)cn(C)c2=O)=N1 (stereo not drawn) [Example I-46, 6-tert-Butyl-8-fluoro-2-{2-hydroxymethyl-3-[1-methyl-5-(4-methyl-5,6-dihydro-4H-[1,3]oxazin-2-ylamino)-6-oxo-1,6-dihydro-pyridin-3-yl]-phenyl}-2H-phthalazin-1-one]",4220 nM
14,"CCNC(C)(C)c1ccc(Nc2cc(-c3cccc(-n4ncc5cc(C(C)(C)C)cc(F)c5c4=O)c3CO)cn(C)c2=O)nc1 [Example I-47, 6-tert-Butyl-2-(3-{5-[5-(1-ethylamino-1-methyl-ethyl)-pyridin-2-ylamino]-1-methyl-6-oxo-1,6-dihydro-pyridin-3-yl}-2-hydroxymethyl-phenyl)-8-fluoro-2H-phthalazin-1-one]",6 nM
15,"CC(=O)NC(C)(C)c1ccc(Nc2cc(-c3cccc(-n4ncc5cc(C(C)(C)C)cc(F)c5c4=O)c3CO)cn(C)c2=O)nc1 [Example I-48, N-[1-(6-{5-[3-(6-tert-Butyl-8-fluoro-1-oxo-1H-phthalazin-2-yl)-2-hydroxymethyl-phenyl]-1-methyl-2-oxo-1,2-dihydro-pyridin-3-ylamino}-pyridin-3-yl)-1-methyl-ethyl]-acetamide]",47 nM
16,"CC1CCN=C(Nc2cc(-c3cccc(-n4ncc5cc(C(C)(C)C)cc(F)c5c4=O)c3CO)cn(C)c2=O)O1 (stereo not drawn) [Example I-49, 6-tert-Butyl-8-fluoro-2-{2-hydroxymethyl-3-[1-methyl-5-(6-methyl-5,6-dihydro-4H-[1,3]oxazin-2-ylamino)-6-oxo-1,6-dihydro-pyridin-3-yl]-phenyl}-2H-phthalazin-1-one]",3130 nM
17,"Cn1cc(-c2cccc(-n3ncc4cc(C(C)(C)C)cc(F)c4c3=O)c2CO)cc(Nc2ccn(C(C)(C)C)c(=O)n2)c1=O [Example I-50, 6-tert-Butyl-2-{3-[5-(1-tert-butyl-2-oxo-1,2-dihydro-pyrimidin-4-ylamino)-1-methyl-6-oxo-1,6-dihydro-pyridin-3-yl]-2-hydroxymethyl-phenyl}-8-fluoro-2H-phthalazin-1-one]",44 nM
18,"Cn1cc(-c2cccc(-n3ccc4cc(C5CC5)cc(F)c4c3=O)c2CO)cc(Nc2ccc(C(=O)N3CCOCC3)cn2)c1=O [Example I-51, 6-Cyclopropyl-8-fluoro-2-(2-hydroxymethyl-3-{1-methyl-5-[5-(morpholine-4-carbonyl)-pyridin-2-ylamino]-6-oxo-1,6-dihydro-pyridin-3-yl}-phenyl)-2H-isoquinolin-1-one]",23 nM
19,"Cn1cc(-c2cccc(-n3ccc4cc(C5CC5)cc(F)c4c3=O)c2CO)cc(Nc2ccc(N3CCNCC3)cn2)c1=O [Example I-52, 6-Cyclopropyl-8-fluoro-2-{2-hydroxymethyl-3-[1-methyl-6-oxo-5-(5-piperazin-1-yl-pyridin-2-ylamino)-1,6-dihydro-pyridin-3-yl]-phenyl}-2H-isoquinolin-1-one]",57 nM
20,"Cn1cc(-c2cccc(-n3ccc4cc(C5CC5)cc(Cl)c4c3=O)c2CO)cc(Nc2ccc(C(=O)N3CCOCC3)cn2)c1=O [Example I-53, 8-Chloro-6-cyclopropyl-2-(2-hydroxymethyl-3-{1-methyl-5-[5-(morpholine-4-carbonyl)-pyridin-2-ylamino]-6-oxo-1,6-dihydro-pyridin-3-yl}-phenyl)-2H-isoquinolin-1-one]",609 nM
21,"CN1CCN(c2ccc(Nc3cc(-c4cccc(-n5ccc6cc(C7CC7)cc(F)c6c5=O)c4CO)cn(C)c3=O)nc2)CC1 [Example I-54, 6-Cyclopropyl-8-fluoro-2-(2-hydroxymethyl-3-{1-methyl-5-[5-(4-methyl-piperazin-1-yl)-pyridin-2-ylamino]-6-oxo-1,6-dihydro-pyridin-3-yl}-phenyl)-2H-isoquinolin-1-one]",14 nM
